Measured values taken from PubChem BioAssay (NCI).
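Cells were grown in 96-well plates and exposed to each compound for 48 hours at five concentrations; endpoints were interpolated linearly between bracketing concentrations, or set to the highest concentration if not reached. TGI: total growth inhibition.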

Key:
Assay in all cases: growth of human tumour cells (NCI), 48 h
UACC-257 melanoma = test system: UACC-257 melanoma
OVCAR-4 ovarian = test system: OVCAR-4 ovarian
BT-549 breast = test system: BT-549 breast
RXF 393 renal = test system: RXF 393 renal
SNB-75 CNS = test system: SNB-75 CNS
HS 578T breast = test system: HS 578T breast
MDA-MB-435 = test system: MDA-MB-435
HCT-15 colon = test system: HCT-15 colon
NCI/ADR-RES ovarian = test system: NCI/ADR-RES ovarian
SN12C renal = test system: SN12C renal
TK-10 renal = test system: TK-10 renal
UO-31 renal = test system: UO-31 renal
SR leukemia = test system: SR leukemia
UACC-62 melanoma = test system: UACC-62 melanoma
NCI-H226 lung = test system: NCI-H226 lung
MCF7 breast = test system: MCF7 breast
U251 CNS = test system: U251 CNS
LOX IMVI melanoma = test system: LOX IMVI melanoma

| Structure (SMILES) | TGI (UACC-257 melanoma) [µM] | TGI (OVCAR-4 ovarian) [µM] | TGI (BT-549 breast) [µM] | TGI (RXF 393 renal) [µM] | TGI (SNB-75 CNS) [µM] | TGI (HS 578T breast) [µM] | TGI (MDA-MB-435) [µM] | TGI (HCT-15 colon) [µM] | TGI (NCI/ADR-RES ovarian) [µM] | TGI (SN12C renal) [µM] | TGI (TK-10 renal) [µM] | TGI (UO-31 renal) [µM] | TGI (SR leukemia) [µM] | TGI (UACC-62 melanoma) [µM] | TGI (NCI-H226 lung) [µM] | TGI (MCF7 breast) [µM] | TGI (U251 CNS) [µM] | TGI (LOX IMVI melanoma) [µM] |
| --- | --- | --- | --- | --- | --- | --- | --- | --- | --- | --- | --- | --- | --- | --- | --- | --- | --- | --- |
| CC(=O)OCC(OC(C)=O)C(OC(C)=O)C(C=NN(C(C)=O)S(=O)(=O)c1ccc(/C=C2\NC(=O)NC2=O)cc1)OC(C)=O (configuration not stated) | > 100 | > 100 | > 100 | > 100 | > 100 | > 100 | > 100 | > 100 | > 100 | > 100 | > 100 | > 100 | > 100 | > 100 | > 100 | > 100 | > 100 |  |
| CC1C(c2ccccc2)OP(=O)(OC(C#N)c2ccccc2)N1C (configuration not stated) | > 100 |  | > 100 | > 100 | > 100 | > 100 | > 100 | > 100 | > 100 | > 100 | > 100 | > 100 | > 100 | > 100 |  | > 100 | > 100 | > 100 |
| Fc1ccc2nc3n(c2c1)C(c1c(F)cccc1F)SC3 (configuration not stated) | > 100 | > 100 | > 100 | > 100 | > 100 | > 100 | > 100 | > 100 | > 100 | > 100 | > 100 | > 100 | 76.2 | > 100 | > 100 | > 100 | > 100 | > 100 |
| CCCCCC/C=C\CCCCCCCCCc1cccc(O)c1C(=O)O | > 100 | > 100 | > 100 | > 100 | > 100 | > 100 | > 100 | > 100 | > 100 | > 100 | > 100 | > 100 | > 100 | > 100 | > 100 | > 100 | > 100 |  |
| CC1(CCC2C=CCC2)CCCNC1=S (configuration not stated) | > 10 |  | > 10 | > 10 | > 10 | > 10 | > 10 | > 10 |  | > 10 | > 10 | > 10 | > 10 | > 10 | > 10 | > 10 | > 10 | > 10 |
| C=CCOC(=O)/C(=C\c1ccc(OC)c(OC)c1)c1ccc(OC)c(OC)c1 | > 100 |  | > 100 | 99.5 | 36.3 | > 100 | > 100 | > 100 | > 100 | > 100 | > 100 | 80 | 72.3 | > 100 | > 100 | > 100 | > 100 |  |
| CCC1(CC)CC(=NNS(=O)(=O)c2ccc(C)cc2)C1 | > 100 | > 100 | > 100 | > 100 | > 100 | > 100 | > 100 | > 100 | > 100 | > 100 | > 100 | > 100 |  | > 100 | > 100 | > 100 | > 100 | > 100 |
| C=C1CC2OC2(C(=O)O[C@H]2CCC3[C@@H]4CCC5=CC(=O)CC[C@]5(C)C4CC[C@@]32C)C1=O (some centres not stated) | 18.3 | 18.4 | 41.9 | 10.9 | 33.9 | 45.1 | 48.7 | 23.1 |  | 13.9 | 15.1 | 15.4 | 7.65 | 28.7 | 55.5 |  | 21.2 | 21.1 |
| NNC(=O)c1ccc(-n2nnc(C(=O)NN)c2C(=O)NN)cc1 | > 100 | > 100 | > 100 |  |  |  | > 100 | > 100 | > 100 | > 100 | > 100 | > 100 | > 100 |  |  | > 100 | > 100 | > 100 |
| O=C1C2CC=CCC2C(=O)N1n1c(-c2ccccc2)n[nH]c1=O (configuration not stated) | > 100 | > 100 | > 100 | > 100 |  | > 100 | > 100 | > 100 | > 100 | > 100 | > 100 | > 100 | > 100 | > 100 | > 100 | > 100 | > 100 | > 100 |
| COc1cc(/C=C2/CCS(=O)(=O)c3ccc(C)cc3C2=O)cc(OC)c1OC | > 42.7 | > 100 | > 26.3 |  | 30 | > 35.9 | > 27.2 | > 39 | > 28.6 | 21.9 | > 44.5 | 23.4 | 7.13 | 16.8 | 45.9 | 14.9 | > 31 | 6.4 |
| CC1CC[C@@H](C(C)C)[C@H](Oc2nnc(C3OC(CO)C(O)C3O)o2)C1 (some centres not stated) | > 100 | > 100 | > 100 | > 100 | > 100 |  | > 100 | > 100 | > 100 | > 100 | > 100 | > 100 |  | > 100 | > 100 | > 100 | > 100 | > 100 |
| COc1ccc(-c2c(N)n(-c3nc4ccccc4s3)c(=O)c3cc([N+](=O)[O-])ccc23)cc1 | > 100 | 68.4 | > 100 | 30.9 | 24.7 | 37.3 | > 100 | > 100 | 78.1 |  | > 100 | 46.7 | > 100 | > 100 | > 100 | > 100 | 35.2 | 48.3 |
| C1=NCCNCCN=Cc2ccc(cc2)OCc2cccc(n2)COc2ccc1cc2 | > 100 | > 100 | > 100 | > 100 | > 100 | > 100 | > 100 | > 100 | > 100 | > 100 |  | > 100 | > 100 | > 100 | > 100 | > 100 | > 100 |  |
| CC12Nc3ccccc3N1C(=O)c1ccccc12 (configuration not stated) | > 100 | > 100 | > 100 | > 100 |  | > 100 | > 100 | > 100 | > 100 | > 100 | > 100 | > 100 | > 100 | > 100 | > 100 | > 100 | > 100 | > 100 |
| Cc1ccc(N2C(=O)C3c4[nH]c5ccccc5c4C4CCC(C(C)(C)C)CC4C3C2=O)cc1 (configuration not stated) | 40.5 | 22.7 | 39.3 | 22.1 |  | 16.9 | 42 | > 100 | 31.8 | 24.7 | 15.7 | 31.3 | 16.6 | 31 | 33.2 | > 46 | 16.1 | 26.6 |
| CN(C)c1ccc(N=Nc2ccc3nc[nH]c3c2)cc1 | 59.5 | 68.5 | > 100 | 88.7 | 68.9 | 74.2 | 47.7 | 70.4 | > 100 | 71 | 52.8 | 65.9 | 87.5 | 48.7 | 82.1 |  | 76.4 |  |
| CN(C(=O)Cc1cc(Cl)c(Cl)cc1N=C=S)[C@H]1CCCC[C@@H]1N1CCCC1 | 28 | 26.3 | 29.5 | 13.1 | 27.9 | 42.4 | 17 | 29.1 | 36.9 | 30.3 | 23.5 | 29.1 | 3.49 | 30.3 |  | 30.1 | 28.2 | 13.3 |
| CC1(C)CC(=O)c2c(nc3ccc4ccccc4c3c2-c2ccc(NC(=O)CCCC(=O)Nc3ccc(-c4c5c(nc6ccc7ccccc7c46)CC(C)(C)CC5=O)cc3)cc2)C1 | > 100 |  | > 100 |  | > 100 | > 100 | > 100 | > 100 | > 100 | > 100 | > 100 | > 100 | > 100 | > 100 | > 100 | > 100 | > 100 | > 100 |
| COc1ccc(NS(=O)CCCc2ccccc2)cc1 (configuration not stated) | > 100 | > 100 | > 100 |  |  | > 100 | > 100 | > 100 | > 100 | > 100 | > 100 | > 100 | > 100 | > 100 | > 100 | > 100 | > 100 | > 100 |
| C/C(=N\Nc1nc2ccccc2s1)c1ncccn1 |  |  | 3.42 | 4.68 | 5.58 | > 37.2 | > 100 | 2.45 | 0.0681 | 25.2 |  | 0.395 | 8.7 | 1.06 |  | > 100 | > 100 |  |
| O=C(CN1CCNCCN(CC(=O)N2CCCCC2)CCNCC1)N1CCCCC1 | > 100 | > 100 | > 100 |  | > 100 | > 100 | > 100 | > 100 | > 100 | > 100 | > 100 | > 100 | > 100 | > 100 | > 100 | > 100 | > 100 | > 100 |
| COc1cccc(/C=C2/Sc3scc(-c4ccccc4)[n+]3C2=O)c1O | 44.9 | 74.4 | 45.1 | 29.8 | > 100 | > 100 | > 100 | 29.9 | 42.3 | 36.8 | 68.4 | 26.9 |  | 30.5 | 40.5 | > 100 | 43.3 | 36.4 |
| COc1cc(OC)c(OC)cc1/C=N/N=C(\N)NO | > 100 | > 100 |  | > 100 | 93.5 | > 100 | > 100 | > 100 | > 100 | > 100 | > 100 | > 100 | > 100 | > 100 | > 100 | > 100 | > 100 | > 100 |
| [N-]=[N+]=Nc1c(-c2ccccc2)c(Cl)nc2ccccc12 | 59.8 | > 100 | 77.1 | > 100 | > 100 | > 100 | > 100 | > 100 | > 100 | > 100 | > 100 | > 100 | > 100 |  | > 100 |  | > 100 | 43.6 |
| COCn1c2ccc(OC(C)=O)cc2c2c(=O)oc(N(C)C)nc21 | > 100 | > 100 | > 100 | > 100 | > 100 | > 100 | > 100 | > 100 | > 100 | > 100 | > 100 |  | > 100 | > 100 | > 100 | > 100 | > 100 | > 100 |
| COc1ccc(N2C(=O)C3c4[nH]c5ccc(C)cc5c4C4CCC(C)CC4C3C2=O)cc1 (configuration not stated) | > 100 |  | > 100 | 58.6 |  | 37.2 | > 100 | > 100 | > 100 | > 100 | > 100 | > 100 | > 100 | > 100 | > 100 |  | > 100 | > 100 |
| CCOC(=O)CSc1nc(-c2ccccc2)c(C#N)c(=O)[nH]1 | > 100 | > 100 | > 100 | > 100 | > 100 | > 100 | > 100 | > 100 | > 100 | > 100 | > 100 | > 100 | > 100 | > 100 | > 100 | > 100 | > 100 |  |
